Test results taken from patent US8114895B2, “Use of bipyridine compound ‘Caerulomycin A’ derivatives and analogs thereof as immunosuppressive agents” (Council of Science and Industrial Research, priority 2005, dated 2012).

System: Splenocytes of BALB/c mice
Test: Proliferation of splenocytes stimulated with T cell and B cell mitogens (ConA, LPS)
Type: cell-based
Method: Splenocytes of BALB/c mice were cultured (5×10^4 cells/well) in 200 μl RPMI/FCS-10% medium and stimulated with different concentrations of either ConA (1 μg/ml and 2 μg/ml) or LPS (5 μg/ml and 10 μg/ml) and Caerulomycin A (0.0003-0.1 μg/ml). The control cultures consisting of splenocytes incubated with medium alone, ConA and DMSO. After 48 h, the cultures were pulsed with 0.5 μCi of [^3H]-thymidine and harvested 14 h later by automatic cell harvester (Skatron, Tranby, Norway). Radioactivity incorporated was measured by liquid scintillation counting and data are expressed as mean counts per minute (cpm).
Examples establishing the role of Caerulomycin A [isolated from a novel species of Actinoalloteichus] in inducing immunosuppression based on the following: • Splenocytes of BALB/c mice were stimulated with either ConA (1 μg/ml and 2 μg/ml) or LPS (5 μg/ml and 10 μg/ml) and were cultured with different concentrations of Caerulomycin A (0.0003-0.1 μg/ml). After 48 h, the cultures were pulsed with 0.5 μCi of [^3H]-thymidine and harvested 14 h later by automatic cell harvester. Radioactivity incorporated was measured by liquid scintillation counting. • Antigen ovalbumin (100 μg/ml) emulsified in Freund's complete adjuvant was injected in a group consisting of 5 BALB/c mice. […] Radioactivity incorporated was measured by liquid scintillation. The culture supernatants were collected after 48 h and cytokines were measured by ELISA. • Immunosuppressive effect of different doses of Caerulomycin A was monitored on naïve CD4^+ T cells, antigen reactive CD4^+ T cells, Th2 clone and Th1 hybridoma. […] Radioactivity incorporated was measured by liquid scintillation. • Immunosuppressive effect of Caerulomycin A on MLR reaction. […] After 4 days, the cultures were pulsed with 1 μCi of [^3H]-thymidine and harvested 16 h later and radioactivity incorporated was measured by liquid scintillation counting. • In vivo immunosuppressive effect of Caerulomycin A on the proliferation of T cells. […] CD28 and CTLA-4 expression was detected by flowcytometry on the surface of resting and ConA activated CD4^+ T cells. […]

## COc1cc(/C=N/O)nc(-c2ccccn2)c1 [Caerulomycin A, (E)-4-methoxy-2,2′-bipyridine-6-carbaldehyde oxime]
Caerulomycin A 0.05 and 0.1 μg/ml
  proliferation of mitogen stimulated cells at the effective doses: potent inhibition
ConA 1.0 and 2.0 μg/ml, Caerulomycin A 0.0003-0.1 μg/ml, 48 h
  proliferation of ConA stimulated cells: significant decrease
LPS 5 and 10 μg/ml, Caerulomycin A 0.0003-0.1 μg/ml, 48 h
  proliferation of cells stimulated with LPS: suppress the proliferation
